Reference: PubChem BioAssay AID2060599 (Molecular Pharmacology Branch, DTP, NCI, 2025)
pIC50: −log10 of the molar value. Values joined by “and” are separate entries in the source; they are usually repeats but may differ in a detail not shown here. Equal values may be shown once.

Test system: 817829-284-R-J1-PDC complex spheroids, viability
Test: Anticancer human tumor 817829-284-R-J1-PDC patient-derived colon adenocarcinoma cell line growth inhibition [CLK]
Conditions: for viability, T/C: stronger effect = lower value
Source text: A high-throughput screen of multi-cell type tumor spheroids was designed to identify active combinations of […] and targeted small molecules. Complex spheroids include a stromal component modeled by human endothelial cells (HUVEC) and fibroblasts modeled by human mesenchymal stem cells (MSCs). The concentration ranges selected for each drug and investigational agent were based upon clinically achievable concentrations if the clinical Cmax of the agent was known.
Compounds. The drugs and investigational agents: cirtuvivint (SM08502; NSC835563), CC-671 (NSC850746), vemurafenib (NSC761431), tapotoclax (NSC804041), sotorasib (NSC818433), adagrasib (NSC831453), MRTX-1133 (NSC836407), BAY2416964 (NSC825713), copanlisib (NSC816437), inavolisib (NSC800729), abemaciclib (NSC768073), osimertinib (NSC779217), entinostat (NSC756642), eltanexor (KPT-8602, NSC794443), venetoclax (NSC766270), ceralasertib (NSC777638), bortezomib (NSC756655), olaparib (NSC753686), talazoparib (NSC767125), alisertib (NSC759677), peposertib (NSC802822), gemcitabine (NSC613327), 5-fluorouracil (NSC19893), SN-38 (NSC673596), oxaliplatin (NSC266046), paclitaxel (NSC125973), and doxorubicin (NSC123127), were obtained from the National Cancer Institute (NCI) Developmental Therapeutics Program Chemical Repository. The FDA-approved anticancer drug set is available from the Developmental Therapeutics Program at https://dtp.cancer.gov/organization/dscb/obtaining/available plates.htm. […] The stock solutions were prepared in dimethyl sulfoxide (DMSO, Sigma-Aldrich, St. Louis, MO, cat. D2650), except for the platinum complexes which were prepared in saline (Quality Biological, Gaithersburg, MD, cat. 114-055-101), at 800-fold the tested concentration and stored at -70 degrees C prior to their use. All drugs and investigational agents were tested over a range starting from a high concentration at or near the clinical Cmax and decreasing in half-log increments. If the clinical Cmax for an agent had not been determined, the highest concentration tested was 10 microM.
Cell Culture. All cells were maintained in an incubator at 37 degrees C and 5% CO2 with 95% humidity. The PDC lines were cultured according to standard operating procedures established by the NCI PDMR. Briefly, all PDCs were thawed and cultured in Matrigel-coated flasks prepared with a working solution of 1X Ham's F-12 nutrient mix, without supplementation (Invitrogen, Waltham, MA, cat. 11765054), 100 U/mL penicillin-streptomycin (Invitrogen, cat. 15140122), and 2.5% Matrigel (Corning Inc., Corning, NY, cat. 354248) for the first three passages. The 947758-054-R-J2-PDC line was cultured in 6B/Colon 1A media, which includes advanced DMEM/F-12 (Thermo Fisher Scientific, cat. 12634028), 10 mM HEPES (Thermo Fisher Scientific, cat. 15630080), 1X GlutaMAX supplement (Thermo Fisher Scientific, cat. 35050061), 0.1 mg/mL primocin (InvivoGen, cat. ant-pm-2), 10% defined fetal bovine serum, heat inactivated (HyClone Laboratories Inc., cat. SH30070.03HI), 1.25 mM N-Acetyl-L-cysteine (Sigma-Aldrich, cat. A9165), 10 mM nicotinamide (Sigma-Aldrich, cat. N0636), 1X B-27 supplement (Thermo Fisher Scientific, cat. 17504044), 1X N-2 supplement (Thermo Fisher Scientific, cat. 17502048), and 10 microM Y-27632 dihydrochloride (Tocris Bioscience, cat. 1254). The 876862-298-R-J1-PDC was cultured in 6E media, which includes all 6B/Colon 1A media components plus 50% L-WRN conditioned media (ATCC, cat. CRL-3276), 50 ng/mL recombinant human EGF recombinant protein (hEGF; Thermo Fisher Scientific, cat. PHG0311), 10 ng/mL recombinant human fibroblast growth factor 10 (hGFG-10; PeproTech, cat. 100-26), 1 ng/mL recombinant human fibroblast growth factor 2 (hFGF-2; PeproTech, cat. 100-18B), and 1 µM prostaglandin E2 (PGE2; Tocris, cat. 2296). The 227483-062-R1-J1-PDC line was cultured in Panc media, containing all 6E components except hFGF-2, with the addition of 500 nM SB-431542 (Selleckchem, cat. S1067) and 10 nM gastrin (Tocris, cat. 3006). […]

[1] = curve of first compound, second compound 0.0316 µM
[2] = curve of first compound, second compound 0.1 µM
[3] = curve of first compound, second compound 0.316 µM
[4] = curve of first compound, second compound 1 µM
[5] = curve of first compound, second compound 3.16 µM
[6] = curve of first compound, second compound 10 µM
[7] = second compound 0.0316 µM, first compound 0.0316 µM
[8] = second compound 0.0316 µM, first compound 0.1 µM
[9] = second compound 0.0316 µM, first compound 0.316 µM
[10] = second compound 0.0316 µM, first compound 1 µM
[11] = second compound 0.1 µM, first compound 0.0316 µM
[12] = second compound 0.1 µM, first compound 0.1 µM
[13] = second compound 0.1 µM, first compound 0.316 µM
[14] = second compound 0.1 µM, first compound 1 µM
[15] = second compound 0.316 µM, first compound 0.0316 µM
[16] = second compound 0.316 µM, first compound 0.1 µM
[17] = second compound 0.316 µM, first compound 0.316 µM
[18] = second compound 0.316 µM, first compound 1 µM
[19] = second compound 1 µM, first compound 0.0316 µM
[20] = second compound 1 µM, first compound 0.1 µM
[21] = second compound 1 µM, first compound 0.316 µM
[22] = second compound 1 µM, first compound 1 µM
[23] = second compound 3.16 µM, first compound 0.0316 µM
[24] = second compound 3.16 µM, first compound 0.1 µM
[25] = second compound 3.16 µM, first compound 0.316 µM
[26] = second compound 3.16 µM, first compound 1 µM
[27] = second compound 10 µM, first compound 0.0316 µM
[28] = second compound 10 µM, first compound 0.1 µM
[29] = second compound 10 µM, first compound 0.316 µM
[30] = second compound 10 µM, first compound 1 µM
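Note: spheroids exposed to the agents for seven days before readout.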

`CCc1c2c(nc3ccc(O)cc13)-c1cc3c(c(=O)n1C2)COC(=O)[C@]3(O)CC` + CN1CCN(c2cc(C(=O)Nc3cc4cc(-c5cnn(C)c5)ccc4cn3)ccn2)CC1 was tested, and the pIC50 [1] was over 8.50, the pIC50 [2] was over 8.50 and the pIC50 [3] was over 8.50. It also gave a pIC50 [4] of over 8.50, a pIC50 [5] of over 8.50 and a pIC50 [6] of over 8.50. The viability, T/C (second compound 0.0316 µM, first compound 0.00316 µM) was 18.9%, the viability, T/C (second compound 0.0316 µM, first compound 0.01 µM) was 14.8% and the viability, T/C [7] was 12.5%. For the same compound, the viability, T/C [8] was 6.83%, the viability, T/C [9] was 4.71% and the viability, T/C [10] was 2.93%. It also gave a viability, T/C (second compound 0.1 µM, first compound 0.00316 µM) of 14.1%, a viability, T/C (second compound 0.1 µM, first compound 0.01 µM) of 11.4% and a viability, T/C [11] of 7.3%. It also gave a viability, T/C [12] of 4.95%, a viability, T/C [13] of 3.31% and a viability, T/C [14] of 1.84%. It also gave a viability, T/C (second compound 0.316 µM, first compound 0.00316 µM) of 2.41%, a viability, T/C (second compound 0.316 µM, first compound 0.01 µM) of 2.17% and a viability, T/C [15] of 1.78%. For the same compound, the viability, T/C [16] was 0.79%, the viability, T/C [17] was 0.28% and the viability, T/C [18] was 0.34%. It also gave a viability, T/C (second compound 1 µM, first compound 0.00316 µM) of 0.09%, a viability, T/C (second compound 1 µM, first compound 0.01 µM) of 0.12% and a viability, T/C [19] of 0.2%. The viability, T/C [20] was 0.27%, the viability, T/C [21] was 0.27% and the viability, T/C [22] was 0.41%. For the same compound, the viability, T/C (second compound 3.16 µM, first compound 0.00316 µM) was 0.14%, the viability, T/C (second compound 3.16 µM, first compound 0.01 µM) was 0.18% and the viability, T/C [23] was 0.19%. The viability, T/C [24] was 0.21%, the viability, T/C [25] was 0.31% and the viability, T/C [26] was 0.67%. The viability, T/C (second compound 10 µM, first compound 0.00316 µM) was 0.05%, the viability, T/C (second compound 10 µM, first compound 0.01 µM) was 0.1% and the viability, T/C [27] was 0.12%. It also gave a viability, T/C [28] of 0.13%, a viability, T/C [29] of 0.15% and a viability, T/C [30] of 0.1%.
`CC(CO)NC(=O)c1cc(-c2ccc(Cl)cc2)nn(-c2cnn(C)c2)c1=O` (stereo unspecified) + CN1CCN(c2cc(C(=O)Nc3cc4cc(-c5cnn(C)c5)ccc4cn3)ccn2)CC1 was tested, and the pIC50 [1] was 5.42, the pIC50 [2] was over 7.50 and the pIC50 [3] was over 7.50. The pIC50 [4] was over 7.50, the pIC50 [5] was over 7.50 and the pIC50 [6] was over 7.50. For the same compound, the viability, T/C [7] was 62.9%, the viability, T/C [8] was 71.7% and the viability, T/C [9] was 61.2%. The viability, T/C [10] was 78.3%, the viability, T/C (second compound 0.0316 µM, first compound 3.16 µM) was 53.1% and the viability, T/C (second compound 0.0316 µM, first compound 10 µM) was 33%. For the same compound, the viability, T/C [11] was 18.3%, the viability, T/C [12] was 15.8% and the viability, T/C [13] was 16.9%. For the same compound, the viability, T/C [14] was 15.6%, the viability, T/C (second compound 0.1 µM, first compound 3.16 µM) was 15.4% and the viability, T/C (second compound 0.1 µM, first compound 10 µM) was 14.6%. For the same compound, the viability, T/C [15] was 2.63%, the viability, T/C [16] was 2.2% and the viability, T/C [17] was 2.62%. For the same compound, the viability, T/C [18] was 2.67%, the viability, T/C (second compound 0.316 µM, first compound 3.16 µM) was 2.25% and the viability, T/C (second compound 0.316 µM, first compound 10 µM) was 2.13%. For the same compound, the viability, T/C [19] was 0.11%, the viability, T/C [20] was 0.12% and the viability, T/C [21] was 0.15%. For the same compound, the viability, T/C [22] was 0.11%, the viability, T/C (second compound 1 µM, first compound 3.16 µM) was 0.11% and the viability, T/C (second compound 1 µM, first compound 10 µM) was 0.13%. The viability, T/C [23] was 0.18%, the viability, T/C [24] was 0.27% and the viability, T/C [25] was 0.22%. The viability, T/C [26] was 0.18%, the viability, T/C (second compound 3.16 µM, first compound 3.16 µM) was 0.29% and the viability, T/C (second compound 3.16 µM, first compound 10 µM) was 0.19%. For the same compound, the viability, T/C [27] was 0.11%, the viability, T/C [28] was 0.14% and the viability, T/C [29] was 0.17%. For the same compound, the viability, T/C [30] was 0.21%, the viability, T/C (second compound 10 µM, first compound 3.16 µM) was 0.23% and the viability, T/C (second compound 10 µM, first compound 10 µM) was 0.19%.
For `Nc1ccn(C2OC(CO)C(O)C2(F)F)c(=O)n1` (stereo unspecified), the viability, T/C (compound 0.0316 µM) was 4.87% and 7.45%, the viability, T/C (compound 0.1 µM) was 5.51% and 7.25% and the viability, T/C (compound 0.316 µM) was 4.21% and 7.26%. The viability, T/C (compound 1 µM) was 3.92% and 6.91%, the viability, T/C (compound 3.16 µM) was 3.8% and 5.67% and the viability, T/C (compound 10 µM) was 2.53% and 4.69%. It also gave a pIC50 (curve of compound) of over 7.50.
